Source: paper PMC3566779 (The Journal of neuroscience : the official journal of the …, 2012)

Key:
[1] = target: TRPA1 (Homo sapiens, UniProt O75762); test: TRPA1 aequorin assay, allylisothiocyanate activation; assay type: cell-based; conditions: read-out: IC50 for TRPA1; 80 μM allylisothiocyanate as agonist
[2] = target: TRPV4 (Homo sapiens, UniProt Q9HBA0); test: TRPV4 aequorin assay, 4α-PDD activation; assay type: cell-based; conditions: read-out: IC50 for TRPV4; 1 μM 4α-PDD as agonist
[3] = tested on: Trpm8−/− mice; test: Abdominal Tb in Trpm8−/− mice, telemetry setup; assay type: in vivo, mouse; conditions: Ta 26°C
[4] = tested on: Trpm8+/+ mice; test: Abdominal Tb in Trpm8+/+ mice, telemetry setup; assay type: in vivo, mouse; conditions: Ta 26°C
[5] = tested on: Wistar rats; test: Preferred Ta and abdominal Tb in rats, thermogradient setup; assay type: in vivo, rat
[6] = tested on: Wistar rats; conditions: TRPV1 antagonist; ref Garami et al., 2010; Steiner et al., 2007; cited from earlier work
[7] = tested on: other TRP channels; test: TRP selectivity assays in CHO cells; assay type: cell-based; conditions: read-out: IC50, block of other TRP channels
[8] = tested on: Wistar rats; test: Deep; assay type: in vivo, rat
[9] = tested on: Wistar rats; test: Colonic Tb and oxygen consumption in rats, respirometry setup; assay type: in vivo, rat; conditions: 6 mg/kg i.v. over 20 min, Ta 19°C
[10] = target: rat TRPM8 (Rattus norvegicus, UniProt Q8R455); test: Aequorin luminescence Ca2+ assay, CHO cells stably expressing rat TRPM8; assay type: cell-based
[11] = tested on: Wistar rats; test: BAT thermometry; assay type: in vivo, rat; conditions: 1 mg/kg i.v. at 32°C
[12] = tested on: native TRPM8 channels in murine primary sensory neurons; test: Ratiometric Ca2+ imaging of trigeminal or dorsal root ganglion neurons; assay type: cell-based, mouse
[13] = tested on: c-Fos expression in the lateral parabrachial nucleus; test: Cold-induced c-Fos immunohistochemistry in the lateral parabrachial nucleus; assay type: in vivo, rat; conditions: rats, 6 mg/kg i.v. pretreatment, 2-h cold exposure (4°C)
[14] = target: TRPV1 (Homo sapiens, UniProt Q8NER1); test: TRPV1 assay, capsaicin activation; assay type: cell-based
TRPV1, sequence (Q8NER1 whole entry, species assumed): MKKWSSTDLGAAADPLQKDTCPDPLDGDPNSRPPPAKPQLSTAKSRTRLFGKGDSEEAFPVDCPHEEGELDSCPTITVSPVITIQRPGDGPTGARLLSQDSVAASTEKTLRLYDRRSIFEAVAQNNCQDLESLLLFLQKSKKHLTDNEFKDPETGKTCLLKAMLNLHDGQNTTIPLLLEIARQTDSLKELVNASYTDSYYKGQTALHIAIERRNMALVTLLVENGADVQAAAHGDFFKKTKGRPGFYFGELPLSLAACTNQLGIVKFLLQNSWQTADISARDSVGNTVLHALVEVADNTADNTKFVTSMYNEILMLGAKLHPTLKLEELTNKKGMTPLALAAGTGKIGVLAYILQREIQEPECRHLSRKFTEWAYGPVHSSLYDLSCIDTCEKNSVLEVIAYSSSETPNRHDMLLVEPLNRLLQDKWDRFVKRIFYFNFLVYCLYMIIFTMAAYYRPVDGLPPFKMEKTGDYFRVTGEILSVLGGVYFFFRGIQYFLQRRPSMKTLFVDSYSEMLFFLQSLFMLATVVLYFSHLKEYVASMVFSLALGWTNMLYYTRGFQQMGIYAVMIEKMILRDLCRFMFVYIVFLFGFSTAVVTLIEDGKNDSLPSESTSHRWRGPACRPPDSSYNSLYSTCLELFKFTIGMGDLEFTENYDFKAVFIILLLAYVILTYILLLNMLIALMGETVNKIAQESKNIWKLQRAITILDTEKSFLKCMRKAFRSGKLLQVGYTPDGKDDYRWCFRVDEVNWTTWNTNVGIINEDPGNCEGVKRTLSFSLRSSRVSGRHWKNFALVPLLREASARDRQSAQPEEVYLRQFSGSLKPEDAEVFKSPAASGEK

rat TRPM8, sequence (Q8R455 whole entry): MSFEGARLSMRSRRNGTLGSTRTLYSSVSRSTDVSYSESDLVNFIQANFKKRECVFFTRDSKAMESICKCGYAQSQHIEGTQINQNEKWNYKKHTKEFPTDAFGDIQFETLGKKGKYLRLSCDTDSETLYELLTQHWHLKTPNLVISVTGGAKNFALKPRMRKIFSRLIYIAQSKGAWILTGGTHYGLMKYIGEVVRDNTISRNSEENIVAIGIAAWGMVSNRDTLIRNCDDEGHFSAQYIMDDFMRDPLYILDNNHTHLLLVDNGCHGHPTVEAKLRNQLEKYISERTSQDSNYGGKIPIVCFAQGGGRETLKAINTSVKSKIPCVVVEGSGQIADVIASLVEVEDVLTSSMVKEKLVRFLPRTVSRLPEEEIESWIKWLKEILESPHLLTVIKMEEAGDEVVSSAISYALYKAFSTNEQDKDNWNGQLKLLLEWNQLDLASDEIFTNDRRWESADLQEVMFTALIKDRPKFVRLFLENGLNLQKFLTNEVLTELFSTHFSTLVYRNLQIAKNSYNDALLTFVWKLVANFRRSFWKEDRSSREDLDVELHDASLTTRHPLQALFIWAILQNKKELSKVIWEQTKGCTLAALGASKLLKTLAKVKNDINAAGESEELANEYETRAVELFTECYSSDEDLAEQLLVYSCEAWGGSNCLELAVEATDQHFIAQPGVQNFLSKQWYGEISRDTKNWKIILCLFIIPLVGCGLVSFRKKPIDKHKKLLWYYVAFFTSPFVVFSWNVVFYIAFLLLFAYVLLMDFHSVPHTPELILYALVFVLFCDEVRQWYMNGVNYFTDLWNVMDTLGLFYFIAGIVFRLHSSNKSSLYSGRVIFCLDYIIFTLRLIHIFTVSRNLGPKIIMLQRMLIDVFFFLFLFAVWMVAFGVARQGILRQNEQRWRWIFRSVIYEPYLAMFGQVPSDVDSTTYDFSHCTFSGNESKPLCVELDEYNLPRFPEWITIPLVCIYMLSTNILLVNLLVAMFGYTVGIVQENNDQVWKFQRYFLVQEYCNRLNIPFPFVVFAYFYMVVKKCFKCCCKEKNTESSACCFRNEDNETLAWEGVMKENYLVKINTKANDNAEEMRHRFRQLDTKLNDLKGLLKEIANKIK
TRPA1, sequence (O75762 whole entry, species assumed): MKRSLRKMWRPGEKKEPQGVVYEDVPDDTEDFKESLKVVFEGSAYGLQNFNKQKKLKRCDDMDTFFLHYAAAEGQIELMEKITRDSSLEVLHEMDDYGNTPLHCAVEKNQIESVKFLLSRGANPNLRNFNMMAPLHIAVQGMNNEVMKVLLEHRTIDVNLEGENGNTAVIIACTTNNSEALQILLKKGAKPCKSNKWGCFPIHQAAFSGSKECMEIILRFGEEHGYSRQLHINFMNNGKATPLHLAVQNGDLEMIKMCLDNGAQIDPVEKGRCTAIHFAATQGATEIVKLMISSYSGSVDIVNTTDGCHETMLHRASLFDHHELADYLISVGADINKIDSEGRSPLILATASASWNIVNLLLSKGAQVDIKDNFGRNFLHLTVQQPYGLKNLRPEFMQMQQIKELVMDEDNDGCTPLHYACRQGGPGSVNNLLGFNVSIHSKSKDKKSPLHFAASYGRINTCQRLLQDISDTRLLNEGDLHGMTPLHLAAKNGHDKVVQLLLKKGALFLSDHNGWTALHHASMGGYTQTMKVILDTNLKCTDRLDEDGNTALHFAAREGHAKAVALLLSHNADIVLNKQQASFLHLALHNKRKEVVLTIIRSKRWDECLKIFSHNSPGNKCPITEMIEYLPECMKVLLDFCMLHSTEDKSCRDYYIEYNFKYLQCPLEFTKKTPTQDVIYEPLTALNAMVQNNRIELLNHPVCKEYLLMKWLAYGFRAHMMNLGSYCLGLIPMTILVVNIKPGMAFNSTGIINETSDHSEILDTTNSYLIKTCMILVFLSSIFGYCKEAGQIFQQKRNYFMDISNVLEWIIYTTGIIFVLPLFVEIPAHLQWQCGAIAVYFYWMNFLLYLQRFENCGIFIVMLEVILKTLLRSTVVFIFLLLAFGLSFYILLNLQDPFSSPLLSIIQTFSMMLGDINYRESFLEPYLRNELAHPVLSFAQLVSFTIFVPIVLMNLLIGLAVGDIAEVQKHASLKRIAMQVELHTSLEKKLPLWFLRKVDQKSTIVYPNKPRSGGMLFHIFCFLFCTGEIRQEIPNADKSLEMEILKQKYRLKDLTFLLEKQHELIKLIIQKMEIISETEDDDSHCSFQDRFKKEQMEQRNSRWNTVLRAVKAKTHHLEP
TRPV4, sequence (Q9HBA0 whole entry, species assumed): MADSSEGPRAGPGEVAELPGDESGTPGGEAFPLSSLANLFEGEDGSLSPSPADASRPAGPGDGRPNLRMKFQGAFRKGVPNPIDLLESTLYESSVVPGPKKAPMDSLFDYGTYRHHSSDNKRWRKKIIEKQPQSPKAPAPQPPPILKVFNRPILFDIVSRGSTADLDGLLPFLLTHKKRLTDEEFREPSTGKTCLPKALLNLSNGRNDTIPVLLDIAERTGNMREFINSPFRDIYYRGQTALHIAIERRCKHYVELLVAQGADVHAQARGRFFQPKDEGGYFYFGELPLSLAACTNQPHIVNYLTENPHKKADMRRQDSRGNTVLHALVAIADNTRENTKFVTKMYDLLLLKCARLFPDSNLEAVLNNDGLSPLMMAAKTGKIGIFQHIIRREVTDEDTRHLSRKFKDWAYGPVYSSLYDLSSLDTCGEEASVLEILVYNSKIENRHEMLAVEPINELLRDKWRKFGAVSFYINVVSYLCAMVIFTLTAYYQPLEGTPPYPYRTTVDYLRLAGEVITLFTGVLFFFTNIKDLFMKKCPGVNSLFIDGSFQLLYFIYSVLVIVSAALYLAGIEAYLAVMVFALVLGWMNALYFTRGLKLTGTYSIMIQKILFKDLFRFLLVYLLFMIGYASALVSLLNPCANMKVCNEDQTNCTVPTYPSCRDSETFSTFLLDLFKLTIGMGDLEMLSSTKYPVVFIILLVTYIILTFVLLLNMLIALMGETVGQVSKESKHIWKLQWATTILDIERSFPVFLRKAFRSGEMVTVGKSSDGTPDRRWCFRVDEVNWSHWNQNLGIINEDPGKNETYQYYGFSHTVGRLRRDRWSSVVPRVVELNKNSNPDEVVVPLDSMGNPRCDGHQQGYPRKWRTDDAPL

## Cl.Cl.Cl.Cl.Cl.Cl.N.N.N.N.N.N.N.N.N.N.N.N.N.N.[O-2].[O-2].[Ru+3].[Ru+3].[Ru+4] [ruthenium red]
[1]
  IC50: 367 nM
[2]
  IC50: 24 nM

## C=C(C)[C@]12C[C@@H](C)[C@@]34O[C@](Cc5ccccc5)(O[C@@H]1[C@@H]3C=C(COC(=O)Cc1ccc(O)c(OC)c1)C[C@]1(O)C(=O)C(C)=C[C@@H]41)O2 [RTX, resiniferatoxin, reference compound]
[3]; 150 ng/kg i.p.
  Decrease in Tb: ~ 2.5 °C
[4]; 150 ng/kg i.p.
  Effect on abdominal Tb: readily produces hypothermia

## CC1CCC(C(C)C)C(O)C1 (stereo not drawn) [menthol, reference compound]
[5]; rats pre-infused with vehicle, 10 g of 0.5% menthol ointment epidermally
  Rise in Tb after menthol: ~ 1 °C

## O=C(/C=C/c1ccc(C(F)(F)F)nc1N1CCCCC1)Nc1cccc2c1CC(O)CC2 (stereo not drawn) [AMG0347]
[6]
  Thermal response: cause hyperthermia

## COc1cc(CN(CCN)C(=O)c2cccs2)ccc1OCc1ccccc1.Cl [M8-B, N-(2-aminoethyl)-N-(4-(benzyloxy)-3-methoxybenzyl)thiophene-2-carboxamide hydrochloride]
[7]
  IC50: > 20000 nM
[8]; 1 mg/kg i.v. at 32°C then 21°C, controls HLI ~0
  Heat loss index (HLI) when Tb was 37.5°C: ~ 0.4
[8]; 1 mg/kg i.v. at Ta 32°C, then transferred to 11°C
  Inter-treatment Tb difference (M8-B vs vehicle): exceeded 1 °C
[8]; 1 mg/kg i.v. at Ta 32°C, then transferred to 14°C
  Inter-treatment Tb difference (M8-B vs vehicle): exceeded 1 °C
[8]; 1 mg/kg i.v. at Ta 32°C, then transferred to 21°C
  Delay of the development of tail skin vasoconstriction: ~ 5 min
[8]; 1 mg/kg i.v. over 40 min at Ta 32°C, then transferred to 21°C
  Effect on Tb: significant decrease in Tb
[8]; 1 mg/kg i.v., constant Ta 15°C
  Changes in Tb compared to vehicle: no significant changes
[8]; 1 mg/kg i.v., constant Ta 19°C, data not shown
  Effect on Tb: did not affect Tb
[8]; 1 mg/kg i.v., constant Ta 32°C
  Changes in Tb compared to vehicle: no significant changes
[8]; 1 mg/kg i.v., experiments of Fig. 6B–H
  Tail Tsk at which M8-B caused a decrease in Tb (threshold, two-line model): ≤ 23.2 °C
[8]; 2.5 mg/kg intracerebroventricularly, Ta 19°C
  Effect on Tb: no effect
[8]; 2.5 mg/kg intrathecally, Ta 19°C
  Effect on Tb: no effect
[8]; 6 mg/kg i.v. over 20 min, Ta 19°C
  Decrease in colonic Tb compared to vehicle: ~ 0.9 °C
[8]; 6 mg/kg intrathecally, Ta 19°C
  Effect on Tb: effective in decreasing Tb
[8]; i.v., Ta 19°C
  Threshold intravenous dose for a significant decrease in deep Tb: 2.5 mg/kg
[9]; from 19 ml/kg/min
  VO2 within the first hour after infusion: ~15 mL/min/kg
[9]; from ~37.3°C
  Colonic Tb within the first hour after infusion: ~ 36.5 °C
[3]; 6 mg/kg i.p.
  Effect on abdominal Tb: not affected
[10]; IC50, inhibition of rat TRPM8 activation by cold, cold (10°C)
  IC50: 7.8 ± 1.1 nM
[10]; IC50, inhibition of rat TRPM8 activation by icilin, icilin (1 μM)
  IC50: 26.9 ± 12.1 nM
[4]; 6 mg/kg i.p.
  Decrease in abdominal Tb: ~ 0.8 °C
[5]; rats, M8-B 1 mg/kg i.v. pretreatment, p = 0.0009
  Effect on hyperthermic response to menthol: significantly attenuated
[5]; rats, M8-B 1 mg/kg i.v. pretreatment, p = 0.096
  Effect on warmth-seeking response to menthol: tended to attenuate
[11]; then 11°C, p = 0.105
  BAT thermogenic response to cold: tended to be less pronounced
[11]; then transferred to 11°C, at 150 min
  Nadir of Tb: ~ 36.2 °C
[12]; M8-B 10 μM, cold (15°C), 19 ± 3% without treatment
  Number of cold-responsive neurons: 4 ± 1%
[12]; menthol 250 μM
  Number of neurons responsive to menthol: significantly decreased
[13]; p = 0.027
  Decrease in number of cold-induced c-Fos-positive neurons, LPBE: 48%
[13]; p = 0.178
  Decrease in number of cold-induced c-Fos-positive neurons, LPBC: 41%

## CC(C)(C)c1ccc(/C=C/C(=O)Nc2ccc3c(c2)OCCO3)cc1 [AMG9810, (E)-3-(4-t-butylphenyl)-N-(2,3-dihydrobenzo[b][1,4]dioxin-6-yl)acrylamide]
[14]
  IC50: 86 nM
